# The supplement of paper PMC11451515
# Tested on: NOMO1
# Assay: cell viability relative to DMSO control; higher = less cytotoxic
# Settings: 48 h
# Summary of the method: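 Viability values are per-plate percentages of DMSO wells, with background from cell-free wells. Library compounds in DMSO were pin-dosed, in an 11-point threefold series from 47 μM to 0.79 nM, onto NOMO1 or SEM (500 cells/well) or P12-Ichikawa (1000 cells/well) leukemia cells in 1536-well plates (5 μl). Those cells had been adapted for at least four passages in each medium, and CellTiter-Glo One luminescence was read after 48 h at 37°C.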
# [1] = HPLM + 10% dialyzed FBS, 0.000781 µM
# [2] = HPLM + 10% dialyzed FBS, 0.00234 µM
# [3] = HPLM + 10% dialyzed FBS, 0.00702 µM
# [4] = HPLM + 10% dialyzed FBS, 0.0211 µM
# [5] = HPLM + 10% dialyzed FBS, 0.0632 µM
# [6] = HPLM + 10% dialyzed FBS, 0.19 µM
# [7] = HPLM + 10% dialyzed FBS, 0.569 µM
# [8] = HPLM + 10% dialyzed FBS, 1.71 µM
# [9] = HPLM + 10% dialyzed FBS, 5.12 µM
# [10] = HPLM + 10% dialyzed FBS, 15.4 µM
# [11] = HPLM + 10% dialyzed FBS, 46.1 µM
# [12] = RPMI 5 mM glucose + 10% FBS, 0.000781 µM
# [13] = RPMI 5 mM glucose + 10% FBS, 0.00234 µM
# [14] = RPMI 5 mM glucose + 10% FBS, 0.00702 µM
# [15] = RPMI 5 mM glucose + 10% FBS, 0.0211 µM
# [16] = RPMI 5 mM glucose + 10% FBS, 0.0632 µM
# [17] = RPMI 5 mM glucose + 10% FBS, 0.19 µM
# [18] = RPMI 5 mM glucose + 10% FBS, 0.569 µM
# [19] = RPMI 5 mM glucose + 10% FBS, 1.71 µM
# [20] = RPMI 5 mM glucose + 10% FBS, 5.12 µM
# [21] = RPMI 5 mM glucose + 10% FBS, 15.4 µM
# [22] = RPMI 5 mM glucose + 10% FBS, 46.1 µM
# [23] = RPMI 5 mM glucose + 10% dialyzed FBS, 0.000781 µM
# [24] = RPMI 5 mM glucose + 10% dialyzed FBS, 0.00234 µM
# [25] = RPMI 5 mM glucose + 10% dialyzed FBS, 0.00702 µM
# [26] = RPMI 5 mM glucose + 10% dialyzed FBS, 0.0211 µM
# [27] = RPMI 5 mM glucose + 10% dialyzed FBS, 0.0632 µM
# [28] = RPMI 5 mM glucose + 10% dialyzed FBS, 0.19 µM
# [29] = RPMI 5 mM glucose + 10% dialyzed FBS, 0.569 µM
# [30] = RPMI 5 mM glucose + 10% dialyzed FBS, 1.71 µM
# [31] = RPMI 5 mM glucose + 10% dialyzed FBS, 5.12 µM
# [32] = RPMI 5 mM glucose + 10% dialyzed FBS, 15.4 µM
# [33] = RPMI 5 mM glucose + 10% dialyzed FBS, 46.1 µM
compound,measurement,setting,value
FC1=CC=C(C=C1)N2/C=C\C=C(C(=O)NC3=CC=C(OC4=C5C=C[NH]C5=NC=C4)C(=C3)F)/C2=O,cell viability,[1],97%
same,cell viability,[2],117%
same,cell viability,[3],106%
same,cell viability,[4],108%
same,cell viability,[5],104%
same,cell viability,[6],144%
same,cell viability,[7],114%
same,cell viability,[8],124%
same,cell viability,[9],119%
same,cell viability,[10],122%
same,cell viability,[11],112%
same,cell viability,[12],104%
same,cell viability,[13],111%
same,cell viability,[14],109%
same,cell viability,[15],110%
same,cell viability,[16],112%
same,cell viability,[17],125%
same,cell viability,[18],116%
same,cell viability,[19],138%
same,cell viability,[20],115%
same,cell viability,[21],101%
same,cell viability,[22],120%
same,cell viability,[23],96.1%
same,cell viability,[24],92.7%
same,cell viability,[25],94.5%
same,cell viability,[26],107%
same,cell viability,[27],108%
same,cell viability,[28],108%
same,cell viability,[29],102%
same,cell viability,[30],124%
same,cell viability,[31],106%
same,cell viability,[32],115%
same,cell viability,[33],108%
CNc1nc(Nc2ccc(C(=O)N3CCOCC3)cc2OC)ncc1Cl,cell viability,[12],103%
same,cell viability,[13],121%
same,cell viability,[14],119%
same,cell viability,[15],109%
same,cell viability,[16],106%
same,cell viability,[17],114%
same,cell viability,[18],111%
same,cell viability,[19],112%
same,cell viability,[20],99.8%
same,cell viability,[21],106%
same,cell viability,[22],90.9%
NC\1=N\C(=O)N(\C=C1)[C@@H]2O[C@H](CO)[C@@H](O)[C@@H]2O,cell viability,[1],76.3%
same,cell viability,[2],79.8%
same,cell viability,[3],47.7%
same,cell viability,[4],62.9%
same,cell viability,[5],33.9%
same,cell viability,[6],30.6%
same,cell viability,[7],31.5%
same,cell viability,[8],25.8%
same,cell viability,[9],20.3%
same,cell viability,[10],20%
same,cell viability,[11],6.26%
same,cell viability,[12],76%
same,cell viability,[13],83.3%
same,cell viability,[14],83.1%
same,cell viability,[15],74.8%
same,cell viability,[16],54.1%
same,cell viability,[17],24.4%
same,cell viability,[18],25.1%
same,cell viability,[19],21.3%
same,cell viability,[20],14.6%
same,cell viability,[21],8.18%
same,cell viability,[22],3.59%
same,cell viability,[23],66.8%
same,cell viability,[24],68.6%
same,cell viability,[25],53.4%
same,cell viability,[26],49.9%
same,cell viability,[27],29.8%
same,cell viability,[28],18.3%
same,cell viability,[29],25.8%
same,cell viability,[30],14.7%
same,cell viability,[31],16.6%
same,cell viability,[32],12.6%
same,cell viability,[33],7.75%
CC(C)(C#N)c1cc(Cn2cncn2)cc(C(C)(C)C#N)c1,cell viability,[12],123%
same,cell viability,[13],106%
same,cell viability,[14],102%
same,cell viability,[15],111%
same,cell viability,[16],109%
same,cell viability,[17],106%
same,cell viability,[18],127%
same,cell viability,[19],114%
same,cell viability,[20],44.2%
same,cell viability,[21],106%
same,cell viability,[22],107%
COc1ccc(-c2ccc3ncc4c(c3c2)n(-c2ccc(N3CCNCC3)c(C(F)(F)F)c2)c(=O)n4C)cn1,cell viability,[1],97.7%
same,cell viability,[2],79.7%
same,cell viability,[3],57.1%
same,cell viability,[4],67%
same,cell viability,[5],51.5%
same,cell viability,[6],45.9%
same,cell viability,[7],47.4%
same,cell viability,[8],24.6%
same,cell viability,[9],4.81%
same,cell viability,[10],3.74%
same,cell viability,[11],2.4%
same,cell viability,[12],105%
same,cell viability,[13],100%
same,cell viability,[14],90.4%
same,cell viability,[15],79.7%
same,cell viability,[16],70%
same,cell viability,[17],54.5%
same,cell viability,[18],49.1%
same,cell viability,[19],32.6%
same,cell viability,[20],32%
same,cell viability,[21],4.07%
same,cell viability,[22],3.17%
same,cell viability,[23],94.5%
same,cell viability,[24],78.3%
same,cell viability,[25],70.9%
same,cell viability,[26],70.5%
same,cell viability,[27],57%
same,cell viability,[28],46.1%
same,cell viability,[29],42.9%
same,cell viability,[30],29.8%
same,cell viability,[31],5.1%
same,cell viability,[32],3.25%
same,cell viability,[33],1.92%
